The values that follow come from patent publication US8841004B2, “Binaphthyl compound and organic light emitting element using the same” (Canon Kabushiki Kaisha, priority 2007, dated 2014).

In brackets after ≈: the same amount, converted by molar mass.

This series is described as follows: Solubility in chlorobenzene heated at 130° C. The series is classed as physicochemical. On the procedure:
Solubility of Example Compound A-02 in chlorobenzene heated at 130° C. was examined.
Comparative Compound H-2 (Comparative Example 2), Comparative Compound H-3 (Comparative Example 3) and Comparative Compound H-5 (Comparative Example 5) were respectively synthesized and solubility in chlorobenzene was examined in the same manner as in Example 1-(C). The results are shown in Table 3 along with those of Examples 1 to 3.
As for `CC1(C)c2ccccc2-c2ccc(-c3ccc4cc(-c5ccc6cc(-c7ccc8c(c7)C(C)(C)c7ccccc7-8)ccc6c5)ccc4c3)cc21` [Comparative Compound H-2], the “Solubility (chlorobenzene, 130° C.)” value was determined as 3300 µg/mL (≈ 5.17 mM).

For the molecule `CC1(C)c2ccccc2-c2ccc(-c3ccc4cc(-c5ccc6cc(-c7ccc8cc(-c9ccc%10c(c9)C(C)(C)c9ccccc9-%10)ccc8c7)ccc6c5)ccc4c3)cc21` [Comparative Compound H-3], the “Solubility (chlorobenzene, 130° C.)” value was “less than 0.6 g/L”.

With `CC1(C)c2cc(-c3ccc4c(c3)C(C)(C)c3cc(-c5ccc6ccccc6c5)ccc3-4)ccc2-c2ccc(-c3ccc4c(c3)C(C)(C)c3cc(-c5ccc6ccccc6c5)ccc3-4)cc21` [Comparative Compound H-5], the “Solubility (chlorobenzene, 130° C.)” value stood at 3500 µg/mL (≈ 4.21 mM).

In the case of `CC1(C)c2ccccc2-c2ccc(-c3ccc4c(c3)C(C)(C)c3cc(-c5ccc6cc(-c7ccc8ccccc8c7)ccc6c5)ccc3-4)cc21` [Example Compound A-02], the “Solubility (chlorobenzene, 130° C.)” value turned out to be 16000 µg/mL (≈ 25 mM).

Turning to `CC1(C)c2ccccc2-c2ccc(-c3ccc4c(c3)C(C)(C)c3cc(-c5ccc6c(c5)C(C)(C)c5cc(-c7ccc8cc(-c9ccc%10ccccc%10c9)ccc8c7)ccc5-6)ccc3-4)cc21` [Example Compound B-18], the “Solubility (chlorobenzene, 130° C.)” value is 9400 µg/mL (≈ 11.3 mM).
